Assay results as given in paper PMC8154566, “Scaffold-Hopping Strategy on a Series of Proteasome Inhibitors Led to a Preclinical Candidate for the Treatment of Visceral Leishmaniasis” (Journal of Medicinal Chemistry, 2021).
Values after ≈ are worked out from the molar mass of the structure shown. Where two headings read alike, the source gives them in different places.

Experiments:
L. donovani amastigotes = assay: INMAC assay: intramacrophage L. donovani in differentiated THP-1 cells; type: cell-based, Leishmania donovani; conditions: for EC50 / IC50: Leishmania donovani; for EC50: THP-1, at least three replicates, SD ≤0.4; for loss of potency: INMAC, relative to compound 4; for IC50: THP-1, read-out: LdInMac pIC50 (converted)
Method: (§1) Intramacrophage L. donovani Assay. This assay was conducted as previously described, except for […]

THP-1 cells = assay: THP-1 host cell read-out of the INMAC assay; type: cell-based; conditions: Homo sapiens
Method: as §1

[1] = FaSSIF (fasted state simulated intestinal fluid) solubility; type: physicochemical
Method: (§2) Intramacrophage L. donovani Assay. This assay was conducted as previously described, except for compound exposure time, which was 96 h instead of 72 h.4
(§3) Intrinsic Clearance. This assay was conducted as previously described.5 Aqueous Solubility. This assay was conducted as previously described.6
(§4) FaSSIF Solublity. This assay was conducted as previously described.5,7
(§5) In vivo Mouse Efficacy Studies. In vivo studies were carried out as previously described, with minor modifications.7 Briefly: Control drug used was Miltefosine (30 mg/kg orally, twice daily for 5 days), vehicle used was 10% (v/v) dimethyl sulfoxide (DMSO), 40% polyethylene glycol 400, and 50% deionized water (10 Ml/kg orally, twice daily for 5 days) and mice were treated with test compound intraperitoneally (50 mg/kg twice daily for 5 days). 5
(§6) All regulated procedures on living animals were carried out under the authority of a project license issued by the Home Office under the Animals (Scientific Procedures) Act 1986, as amended in 2012 (and in compliance with EU Directive EU/2010/63). Infected animals had access to food and water ad libitum and were housed under a 12 hour light/dark photoperiod. Animals used in these experiments were female NMRI and Balb/c mice (Harlan, UK).
(§7) Test compound DDD01008714 was dosed orally (P.O.) at 10 mg free base/kg (dose volume 10 mL/kg; dose vehicle: 10% (vol/vol) dimethyl sulfoxide (DMSO), 40% polyethylene glycol 400 (PEG400) and 50% deionized water) to female NMRI mice (n = 3) or intravenously (I.V.) at 3 mg free base/kg (dose volume 5 mL/kg; dose vehicle: 10% (vol/vol) dimethyl sulfoxide (DMSO) and 90% Saline) to female Balb/c mice (n = 3). Blood samples (10 μL) where taken from the tail vein of […]

[2] = Kinetic aqueous solubility by CLND; type: physicochemical
Method: We had successfully used these criteria in the hit to lead stage to identify compounds for in vivo proof-of-concept studies in another program, which subsequently led to the identification of preclinical candidate DDD853651/GSK3186899 active against CRK12.[7] […] A pharmacokinetic (PK) study was thus performed, dosed at 10 mg/kg po and 3 mg/kg iv. […] With the limited knowledge of the PK/PD drivers for the treatment of VL, we considered this to be a suitable profile for the progression of 4 into a previously reported mouse efficacy model of VL,[6],[7],[17],[18] where it was dosed twice daily at 50 mg/kg ip in order to further maximize exposure and give the best chance of achieving proof-of-concept.
as §2, §3, §4, §5, §6, §7

[3] = Mouse liver microsomal intrinsic clearance; type: in vitro ADME; conditions: for Mouse CLi: mouse liver microsomes; for Cli (mouse, ml/min/g): supplementary csv
Method: as §2, §3, §4, §5, §6, §7

[4] = Table 5, read-out: INMAC pEC50 (converted)
[5] = THP-1, Table 5, read-out: THP-1 pEC50 (converted)
[6] = Table 5, kinetic, CLND, read-out: Aq. solubility
[7] = supplementary csv, read-out: Aqueous Solubility
[8] = Table 2, read-out: INMAC (pEC50) (converted)
[9] = THP-1, Table 2, read-out: THP-1 (pEC50) (converted)
[10] = THP-1, supplementary csv, read-out: THP1 pIC50 (converted)
[11] = Table 2, kinetic, CLND, read-out: Aq. solubility
[12] = Table 6, read-out: INMAC pEC50 (converted)
[13] = THP-1, Table 6, read-out: THP-1 pEC50 (converted)
[14] = Table 6, kinetic, CLND, read-out: Aq. solubility

Row | SMILES | solubility ([1]; supplementary csv) [µM] | solubility [2, 7] [µM] | Cli (mouse, ml/min/g) [3] [mL/min/g] | loss of potency (L. donovani amastigotes) [fold] | IC50 (L. donovani amastigotes) [µM] | EC50 (L. donovani amastigotes; [8]) [µM] | EC50 (THP-1 cells; [9]) [µM] | IC50 (THP-1 cells; [10]) [µM] | solubility [2, 11] [µM] | Mouse CLi ([3]; Table 2) [mL/min/g] | further results
1 | O=C(Nc1ccc(F)c(-c2cn3nc(N4CCOCC4)cnc3n2)c1)N1CCCC1 [Compound 23, N-(4-Fluoro-3-(2-morpholinoimidazo[1,2-b][1,2,4]triazin-6-yl)phenyl)pyrrolidine-1-carboxamide] | 140 (≈ 57.6 µg/mL) | 130 (≈ 53.5 µg/mL) | 0.9 | – | – | – | – | – | – | – | EC50 (L. donovani amastigotes; [4]): 0.398 µM; IC50 (THP-1 cells; THP-1, read-out: THP1 pIC50 (converted)): > 50.1 µM; EC50 (THP-1 cells; [5]): > 50.1 µM; solubility [2, 6]: 126 µM (≈ 51.8 µg/mL); Mouse CLi ([3]; Table 5): 0.9 mL/min/g
2 | O=C(Nc1nccc(-c2cn3cc(N4CCOCC4)cnc3n2)n1)N1CCCC1 [Compound 12, N-(4-(6-Morpholinoimidazo[1,2-a]pyrimidin-2-yl)pyrimidin-2-yl)pyrrolidine-1-carboxamide] | > 1000 | – | <0.5 | > 10 | > 50.1 | > 50.1 | > 50.1 | > 50.1 | ≥ 470 | <0.5 | –
3 | O=C(Nc1ccc(F)c(-c2ccn3c(N4CCCCC4)cnc3n2)c1)N1CCCC1 [Compound 34, N-(4-Fluoro-3-(3-(piperidin-1-yl)imidazo[1,2-a]pyrimidin-7-yl)phenyl)pyrrolidine-1-carboxamide] | – | 360 (≈ 147 µg/mL) | 8.4 | – | – | – | – | 50.1 | – | – | EC50 (L. donovani amastigotes; [12]): 0.501 µM; EC50 (THP-1 cells; [13]): 50.1 µM; solubility at 4 h ([1]; pH 6.5, Table 6): 32 µM (≈ 13.1 µg/mL); solubility [2, 14]: 358 µM (≈ 146 µg/mL); Mouse CLi ([3]; Table 6): 8.4 mL/min/g
4 | O=C(Nc1ccc(F)c(-c2cc3nc(N4CCOCC4)cnc3o2)c1)N1CCCC1 [Compound 21, N-[4-Fluoro-3-(2-morpholinofuro[2,3-b]pyrazin-6-yl)phenyl]pyrrolidine-1-carboxamide] | – | – | 2.8 | – | – | – | – | > 50.1 | – | – | EC50 (L. donovani amastigotes; [4]): 0.158 µM; EC50 (THP-1 cells; [5]): > 50.1 µM; solubility at 4 h ([1]; pH 6.5, Table 5): 15 µM (≈ 6.17 µg/mL); solubility [2, 6]: 70 µM (≈ 28.8 µg/mL); Mouse CLi ([3]; Table 5): 2.8 mL/min/g
5 | O=C(Nc1cc(-c2cn3cc(N4CCOCC4)cnc3n2)ncn1)N1CCCC1 [Compound 10, N-(6-(6-Morpholinoimidazo[1,2-a]pyrimidin-2-yl)pyrimidin-4-yl)pyrrolidine-1-carboxamide] | > 1000 | ≥ 440 | <0.5 | > 10 | > 50.1 | > 50.1 | > 50.1 | > 50.1 | ≥ 435 | <0.5 | solubility ([1]; Table 2): > 100 µM; solubility at 4 h ([1]; pH 6.5, Table 2): 2050 µM (≈ 807 µg/mL)
6 | CC(C)Nc1cnc2nc(-c3cc(NC(=O)N4CCCC4)ccc3F)ccn12 [Compound 45, N-(4-Fluoro-3-(3-(isopropylamino)imidazo[1,2-a]pyrimidin-7-yl)phenyl)pyrrolidine-1-carboxamide] | – | 120 (≈ 45.9 µg/mL) | 5.2 | – | – | – | – | 50.1 | – | – | EC50 (L. donovani amastigotes; [12]): 2.51 µM; EC50 (THP-1 cells; [13]): 50.1 µM; solubility at 4 h ([1]; pH 6.5, Table 6): 13 µM (≈ 4.97 µg/mL); solubility [2, 14]: 124 µM (≈ 47.4 µg/mL); Mouse CLi ([3]; Table 6): 5.2 mL/min/g
7 | O=C(Nc1cncc(-c2cn3cc(N4CCOCC4)cnc3n2)n1)N1CCCC1 [Compound 11, N-(6-(6-Morpholinoimidazo[1,2-a]pyrimidin-2-yl)pyrazin-2-yl)pyrrolidine-1-carboxamide] | 210 (≈ 82.8 µg/mL) | ≥ 400 | <0.5 | > 10 | > 50.1 | > 50.1 | > 50.1 | > 50.1 | ≥ 396 | <0.5 | solubility ([1]; Table 2): > 100 µM; solubility at 4 h ([1]; pH 6.5, Table 2): 213 µM (≈ 84 µg/mL)
